Laboratory results from patent publication EP0068268A1, “Enhancer of anti-tumour effect” (Yamasa Shoyu Kabushiki Kaisha, priority 1981, dated 1983).
Like-named read-outs stand apart in the source and are kept apart here.

Columns and labels:
Acute toxicity test = experiment: Acute toxicity test; set-up: species or system ICR mice; conditions: mouse, in vivo, ip
Protocol: Various quantities of N -butyryl-3'-dAdo were administered intraperitoneally to ICR mice (male, 8-weeks old, 10 mice for each group) in doses of 250 mg to 1,000 mg/kg, and the mice were subjected to observation for a week.

EMT-6 tumors [1] = experiment: Radiosensitizing effect on experimental tumors in mice (cure percentages and TCD50, Experiment 3); assay type: in vivo, BALB/c-strain female mice; conditions: for TCD50: 100 mg/kg intraperitoneally after 32 MeV electron beam irradiation, control 2400; for Cure number/Number treated (%) / Cure number/Number treated: 100 mg/kg intraperitoneally after irradiation; for Cure number/Number treated (%): cure percentage; for Cure number/Number treated: observation longer than 90 days; for TCD50 (ratio): ratio to control (1.0)
Protocol: EMT-6 tumor cells ([…]) were inoculated intradermally into the right thighs of BALB/c-strain female mice (8 weeks old). When the tumor sizes reached 5.5 to 8.0 mm after inoculation of the tumor cells, irradiation was locally carried out with 1,000 rad to 2,700 rad of 32 MeV electron beam under no anesthesia, and thereafter 3'-dAdo and N^6-butyryl-3'-dAdo, each dissolved in physiological saline solution, were administered intraperitoneally in a dose of 100 mg/kg. After the treatments, observation was continued for longer than 90 days, and the cure percentages were determined for comparison with the control group. [formula] [formula]

EMT-6 tumors [2] = experiment: Enhancement of the effect of anti-tumor agents on experimental tumors in mice (Experiment 5); assay type: in vivo, BALB/c-strain mice; conditions: 14th day after treatment
Protocol: EMT-6 tumor cells (1 x 10^6) were inoculated intradermally into the right thighs of BALB/c-strain mice (8 weeks old). On the 12th day after inoculation of the tumor cells and thereafter, each chemical in a physiological saline solution was administered intrapenitoneally to each mouse four times a week in the indicated doses for respective agents. The pharmaceutical agents of the present invention were administered one hour after administration of the anti-tumor agents. After commencement of the treatment with pharmaceutical agents, the tumor sizes were measured every other day and compared with those of the control group.

RIF1 tumors = experiment: Radiosensitizing effect on experimental tumors in mice (tumor size after irradiation, Experiment 4); assay type: in vivo, C3H/Heston-strain female mice; conditions: for Mean tumor diameter (mm): n=7; for Sensitizing effect: relative to irradiation alone
Protocol: RIF1 tumor cells ([…]) were inoculated intradermally into the right thighs of C3H/Heston-strain female mice (8 weeks old). When the tumor sizes reached 6.0 to 10.0 mm after inoculation of the tumor cells, irradiation was carried out with 2,500 rad/min. of an electron beam, and thereafter N^6-acetyl-3'-dAdo, N^6-butyryl-3'-dAdo, N^6-hexanoyl-3'-dAdo, and N - octanoyl-3'-dAdo, each dissolved in physiological saline solution, were administered intraperitoneally in a dose of 100 mg/kg. After the treatments, the tumor sizes in terms of diameters in three-axial directions were measured on the 10th day and the 20th day (9th day and the 21st day only in case of N^6-butyryl-3'-dAdo).

[3] = system: Chinese hamster-HA-1 cells; experiment: Radiosensitizing effect on the tumor cells in culture (PLDR inhibition, colony forming ability after X-rays); assay type: cell-based
Protocol: Cells under stationary phase, prepared by planting 2 x 10^5 cells/well of Chinese hamster-HA-1 cells in a multi-well dish and exchanging cultural medium every day starting on the third day and thereafter were irradiated with 1,000 R of X-rays. Immediately after radiation, N6-butyryl-3'-dAdo in Hanks' balanced salt solution were administered. Then, after elapse of various times, the cells were taken off with trypsin, and a suitable number of cells were transferred into petri dishes for testing colony forming ability and plating efficiencies. The percentages of survival were calculated with corrections by the plating efficiencies with the pharmaceutical agents alone.

EMT-6 tumors [4] = experiment: Radiosensitizing effect on experimental tumor in mice (tumor size after local irradiation, Experiment 2); assay type: in vivo, BALB/c-strain female mice; conditions: for Mean tumor diameter (mm): 1,500 rad 32 MeV electron beam, n = 9; for Sensitizing effect: diameter ratio with agent / diameter ratio with irradiation alone
Protocol: EMT-6 tumor cells (2 x 10^5) were inoculated intradermally into the right thighs of BALB/c-strain female mice (8 weeks old, 6 or more mice for each group). When the tumor size reached 5.5 to 7.5 mm in diameter after inoculation of the tumor cells, local irradiation with a 32 MeV electron beam was carried out at 1,500 rad under no anesthesia and thereafter N^6-butyryl-3'-dAdo dissolved in physiological saline solution, was administered intraperitoneally to each mouse in 100 mg/kg. On the 9th day and 20th day after these treatments, t tumor sizes were measured in tri-dimensional diameters, and compared with the control group with respect to the following items: [formula] [formula] The results are shown in Table 2, in which "cure" means that the tumors completely vanished during the observation period.

[5] = 10th day after treatment, 2500 rad, then 100 mg/kg intraperitoneally
[6] = 20th day after treatment, 2500 rad, then 100 mg/kg intraperitoneally
[7] = 20th day after treatment, but 21st day for this compound
[8] = column head 10th day after treatment, but 9th day for this compound
[9] = FT-207 100mg/kg x 7 plus enhancer 50mg/kg x 7

Nc1ncnc2c1ncn2[C@@H]1O[C@H](CO)C[C@H]1O [3'-dAdo, 3'-deoxyadenosine, reference compound]
LD50 at 168 h (Acute toxicity test; intraperitoneally, ICR mice male, observation for a week, read-out: LD50): 280 mg/kg
TCD50 (EMT-6 tumors [1]): 1600
Cure number/Number treated (%) (EMT-6 tumors [1]; 1,000 rad): 17%
Cure number/Number treated (EMT-6 tumors [1]; 1,000 rad): 3/18
Cure number/Number treated (%) (EMT-6 tumors [1]; 1,500 rad): 48%
Cure number/Number treated (EMT-6 tumors [1]; 1,500 rad): 14/29
Cure number/Number treated (%) (EMT-6 tumors [1]; 2,100 rad): 79%
Cure number/Number treated (EMT-6 tumors [1]; 2,100 rad): 11/14
Cure number/Number treated (%) (EMT-6 tumors [1]; 2,700 rad): 67%
Cure number/Number treated (EMT-6 tumors [1]; 2,700 rad): 10/15
TCD50 (ratio) (EMT-6 tumors [1]): 0.67

O=c1[nH]c(=O)n(C2CCCO2)cc1F (stereo not drawn) [FT-207, 1-(2-tetrahydrofuryl)-5-fluorouracil, reference compound]
Diameter ratio, value in brackets (relative to control = 1.00) (EMT-6 tumors [2]; anti-tumor agent alone, 100mg/kg x 7): 0.76
Mean tumor diameter (mm) (EMT-6 tumors [2]; anti-tumor agent alone, 100mg/kg x 7 intraperitoneally, n = 4): 7.80±1.64 mm

CC(=O)Nc1ncnc2c1ncn2[C@@H]1O[C@H](CO)C[C@H]1O [N^6-acetyl-3'-dAdo]
Diameter ratio (RIF1 tumors; [5]): 1.12±0.06
Mean tumor diameter (mm) (RIF1 tumors; [5]): 7.86±0.55 mm
Sensitizing effect (RIF1 tumors; 10th day after treatment): 0.95
Diameter ratio (RIF1 tumors; [6]): 1.49±0.06
Mean tumor diameter (mm) (RIF1 tumors; [6]): 10.39±0.51 mm
Sensitizing effect (RIF1 tumors; 20th day after treatment): 0.84

CCCC(=O)Nc1ncnc2c1ncn2[C@@H]1O[C@H](CO)C[C@H]1O [N^6-butyryl-3'-dAdo]
Diameter ratio (RIF1 tumors; [7]): 1.35±0.08
Mean tumor diameter (mm) (RIF1 tumors; 20th day after treatment, but 21st day for this compound, 2500 rad, then 100 mg/kg intraperitoneally): 10.28±0.36 mm
Sensitizing effect (RIF1 tumors; [7]): 0.76
Diameter ratio (RIF1 tumors; [8]): 0.90±0.08
Mean tumor diameter (mm) (RIF1 tumors; column head 10th day after treatment, but 9th day for this compound, 2500 rad, then 100 mg/kg intraperitoneally): 6.71±0.63 mm
Sensitizing effect (RIF1 tumors; [8]): 0.76
Plating efficiency (%) After 1 hour ([3]; 40 µg/ml given immediately after 1,000 R of X-rays, stationary phase cells, 1 hour after irradiation): 1.4%
Plating efficiency (%) After 4 hours ([3]; 40 µg/ml given immediately after 1,000 R of X-rays, stationary phase cells, 4 hours after irradiation): 2.2%
Plating efficiency (%) After 7 hours ([3]; 40 µg/ml given immediately after 1,000 R of X-rays, stationary phase cells, 7 hours after irradiation): 2.4%
inhibition of repair (PLDR) after irradiation with X-rays ([3]; result in words, from Table 1): inhibit repair (PLDR)
toxicity, as examined by plating efficiencies ([3]; result in words, agent alone): Substantially no toxicity was observed
Diameter ratio (mm) (EMT-6 tumors [2]; [9]): 0.97±0.23
Diameter ratio, value in brackets (relative to control = 1.00) (EMT-6 tumors [2]; [9]): 0.62
Mean tumor diameter (mm) (EMT-6 tumors [2]; FT-207 100mg/kg x 7 plus enhancer 50mg/kg x 7 given one hour later, n = 5): 6.72±1.69 mm
Diameter ratio (mm) (EMT-6 tumors [2]; enhancer alone, 50mg/kg x 7): 1.36±0.32
Diameter ratio, value in brackets (relative to control = 1.00) (EMT-6 tumors [2]; enhancer alone, 50mg/kg x 7): 0.87
Mean tumor diameter (mm) (EMT-6 tumors [2]; enhancer alone, 50mg/kg x 7 intraperitoneally, n = 5): 9.92±2.45 mm
Enhancing effect (EMT-6 tumors [2]; ratio in combination / (ratio anti-tumor agent alone x ratio enhancer alone), FT-207 100mg/kg x 7 plus enhancer 50mg/kg x 7): 0.94
Mean tumor diameter (mm) (EMT-6 tumors [4]; 9 days after treatment, then 100 mg/kg intraperitoneally): 5.36±1.13 mm
Diameter ratio (EMT-6 tumors [4]; 9 days after treatment, 1,500 rad, then 100 mg/kg intraperitoneally): 0.83±0.18
Sensitizing effect (EMT-6 tumors [4]; 9 days after treatment): 0.86
Mean tumor diameter (mm) (EMT-6 tumors [4]; 20 days after treatment, then 100 mg/kg intraperitoneally): 0.0±0.0 mm
Cured cases (EMT-6 tumors [4]; 20 days after treatment, cure = tumors completely vanished during the observation period, 1,500 rad + 100 mg/kg i.p.): 9/9
Sensitizing effect (EMT-6 tumors [4]; 20 days after treatment): 0.00
LD50 at 168 h (Acute toxicity test): 710 mg/kg
TCD50 (EMT-6 tumors [1]): 1080
Cure number/Number treated (%) (EMT-6 tumors [1]; 1,000 rad): 40%
Cure number/Number treated (EMT-6 tumors [1]; 1,000 rad): 6/15
Cure number/Number treated (%) (EMT-6 tumors [1]; 1,500 rad): 65%
Cure number/Number treated (EMT-6 tumors [1]; 1,500 rad): 13/20
Cure number/Number treated (%) (EMT-6 tumors [1]; 2,100 rad): 93%
Cure number/Number treated (EMT-6 tumors [1]; 2,100 rad): 14/15
Cure number/Number treated (%) (EMT-6 tumors [1]; 2,700 rad): 100%
Cure number/Number treated (EMT-6 tumors [1]; 2,700 rad): 16/16
TCD50 (ratio) (EMT-6 tumors [1]): 0.45

CCCCCC(=O)Nc1ncnc2c1ncn2[C@@H]1O[C@H](CO)C[C@H]1O [N^6-hexanoyl-3'-dAdo]
Diameter ratio (RIF1 tumors; [5]): 1.11±0.05
Mean tumor diameter (mm) (RIF1 tumors; [5]): 7.90±0.47 mm
Sensitizing effect (RIF1 tumors; 10th day after treatment): 0.94
Diameter ratio (RIF1 tumors; [6]): 1.46±0.05
Mean tumor diameter (mm) (RIF1 tumors; [6]): 10.37±0.42 mm
Sensitizing effect (RIF1 tumors; 20th day after treatment): 0.82

CCCCCCCC(=O)Nc1ncnc2c1ncn2[C@@H]1O[C@H](CO)C[C@H]1O [N^6-octanoyl-3'-dAdo]
Diameter ratio (RIF1 tumors; [5]): 1.04±0.04
Mean tumor diameter (mm) (RIF1 tumors; [5]): 7.50±0.37 mm
Sensitizing effect (RIF1 tumors; 10th day after treatment): 0.88
Diameter ratio (RIF1 tumors; [6]): 1.33±0.02
Mean tumor diameter (mm) (RIF1 tumors; [6]): 9.61±0.46 mm
Sensitizing effect (RIF1 tumors; 20th day after treatment): 0.75
